Series [1] deals with NCI-H929 (Multiple myeloma cells). Put plainly: Cell viability (ATPLite) in NCI-H929. The settings on record: Homo sapiens, 96 hours. The format is cell-based. Summed up: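 Cells were seeded at 500/well and, after 24 h, treated with compound at 100 nM or 2 uM for 0 or 96 hours. Viability was measured by ATPLite cellular ATP read-out.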
(Cellular ATP, detected with luciferase, serves as a proxy for viable cell number.)

Series [2] relates to XBP1(u)-luciferase splicing reporter in HepG2 hepatoma cells. Put plainly: HepG2 XBP1 reporter assay (XBP1(u)-Luc). The format is cell-based. The settings on record: Homo sapiens, 6 hours after compound addition, Table 4. On the technique in general: A reporter such as luciferase makes a cellular process visible.
Series [3] relates to DU4475 (breast cancer cells). Put plainly: Cell viability (ATPLite) in DU4475. To be noted: Homo sapiens, DU-4475, 96 hours. The format is cell-based. How it is done:
Cells were removed from liquid nitrogen storage, thawed and expanded in appropriate growth media. Once expanded, cells were seeded in 384-well tissue culture treated plates at 500 cells per well. After 24 hours, cells were treated for either 0 hours or treated for 96 hours with a testing compound (at the concentrations of 100 nM and 2 uM). At the end of either 0 hours or 96 hours, cell status was analyzed using ATPLite (Perkin Elmer) to assess the biological response of cells to the testing compound.

By melting point is commonly meant the temperature, or range, at which the solid turns liquid. `Cc1cc(N2CCCN(S(C)(=O)=O)CC2c2ccccc2Cl)nc(N)n1` (racemic) [I-28, (+/−)-4-(2-(2-chlorophenyl)-4-(methylsulfonyl)-1,4-diazepan-1-yl)-6-methylpyrimidin-2-amine]: the melting point fell in the range of 278 to 280 °C.

`COc1cc(C2CCCCCN2c2cc(C)nc(N)n2)c(OC)cn1` (racemic) [I-116, (+/−)-4-[2-(2,5-dimethoxy-4-pyridyl)azepan-1-yl]-6-methyl-pyrimidin-2-amine] displayed a melting point of 107 to 109 °C.

For the molecule `Cc1cc(N2CCCOC[C@H]2c2ccccc2Cl)nc(N)n1` (single isomer, unassigned) [I-30], the melting point is 156 to 160 °C.

For `Cc1cc(N2CCCOC[C@H]2c2ccc(C#N)cc2Cl)nc(N)n1` (single isomer, unassigned) [I-96], the melting point was 220 °C.

For `Cc1cc(N2CCCOC[C@@H]2c2cc(S(C)(=O)=O)ccc2Cl)nc(N)n1` (single isomer, unassigned) [I-103], the melting point amounted to 120 °C.

The IC50 is the concentration at which inhibition is half-maximal. As for `Cc1cc(N2CCCOCC2c2cc(Cl)c(C)cc2Cl)nc(N)n1` (centres unmarked) [C-3], the IC50 was in the range of 1 to 10 µM in series [1], 0.6 to 2 µM in series [2] and 1 to 10 µM in series [3].

Take `Cc1cc(N2CCCOCC2c2cc(F)c(F)cc2Cl)nc(N)n1` (centres unmarked) [C-4]: the IC50 was 1 to 10 µM in series [1], 0.6 to 2 µM in series [2] and 1 to 10 µM in series [3].

As for `Cc1cc(N2CCCOCC2c2cc3c(cc2Cl)OCC(=O)N3)nc(N)n1` (centres unmarked) [C-5], the IC50 in series [1] is less than 1 µM; in series [2] it was less than 0.6 µM; in series [3], less than 1 µM.

On to `Cc1cc(N2CCCOCC2c2cc3c(cc2Cl)OCCO3)nc(N)n1` (centres unmarked) [C-6], for which the IC50 in series [1] is 1 to 10 µM; in series [2] it was 0.6 to 2 µM; in series [3], less than 1 µM.

With `Cc1cc(N2CCCOCC2c2cc(Cl)c(O)cc2Cl)nc(N)n1` (centres unmarked) [C-7], the IC50 was in the range of 1 to 10 µM in series [1], 0.6 to 2 µM in series [2] and 1 to 10 µM in series [3].

Regarding `Cc1cc(N2CCCOCC2c2ccc(CS(C)(=O)=O)cc2F)nc(N)n1` (centres unmarked) [C-11, 4-[3-(2-Fluoro-4-methanesulfonylmethyl-phenyl)-[1,4]oxazepan-4-yl]-6-methyl-pyrimidin-2-ylamine], the IC50 in series [1] is less than 1 µM; in series [2] it was 0.6 to 2 µM; in series [3] it was less than 1 µM.

For the molecule `Cc1cc(N2CCCOCC2c2cc(CS(C)(=O)=O)ccc2Cl)nc(N)n1` (centres unmarked) [C-12, 4-[3-(2-Chloro-5-methanesulfonylmethyl-phenyl)-[1,4]oxazepan-4-yl]-6-methyl-pyrimidin-2-ylamine], the IC50 is 1 to 10 µM in series [1], 0.6 to 2 µM in series [2] and less than 1 µM in series [3].

`Cc1cc(N2CCCOCC2c2cc3c(cc2Cl)OCCCO3)nc(N)n1` (centres unmarked) [C-13]: the values for the IC50 in series [1], in series [2] and in series [3] were 1 to 10 µM, less than 0.6 µM and less than 1 µM, respectively.

As to `COc1cc(C2COCCCN2c2cc(C)nc(N)n2)c(Cl)cc1O` (centres unmarked) [C-14], the values for the IC50 in series [1], in series [2] and in series [3] were 1 to 10 µM, 0.6 to 2 µM and less than 1 µM, respectively.

Consider `COc1cc(Cl)c(C2COCCCN2c2cc(C)nc(N)n2)cc1OC` (centres unmarked) [C-15], for which the IC50 is less than 1 µM in series [1], 0.6 to 2 µM in series [2] and less than 1 µM in series [3].

For the molecule `Cc1cc(N2CCCOCC2c2cc(C)c(N)cc2Cl)nc(N)n1` (centres unmarked) [C-16], the IC50 in series [1] was less than 1 µM; in series [2], less than 0.6 µM; in series [3], less than 1 µM.

Regarding `Cc1cc(N2CCCOCC2c2cc(F)c(Cl)cc2Cl)nc(N)n1` (centres unmarked) [C-18], the IC50 was 1 to 10 µM in series [1], 2 to 5 µM in series [2] and 1 to 10 µM in series [3].

Consider `COc1cc(Cl)c(C2COCCCN2c2cc(C)nc(N)n2)cc1Cl` (centres unmarked) [C-19], for which the IC50 in series [1] was 1 to 10 µM; in series [2], 0.6 to 2 µM; in series [3], less than 1 µM.

For `Cc1cc(N2CCCOCC2c2cc3c(cc2Cl)n(C)c(=O)n3C)nc(N)n1` (centres unmarked) [C-20], the IC50 in series [1] is less than 1 µM; in series [2], less than 0.6 µM; in series [3], less than 1 µM.

For `CCNc1cc(Cl)c(C2COCCCN2c2cc(C)nc(N)n2)cc1C` (centres unmarked) [C-21], the IC50 was less than 1 µM in series [1], less than 0.6 µM in series [2] and less than 1 µM in series [3].

With `CCOc1cc(Cl)c(C2COCCCN2c2cc(C)nc(N)n2)cc1OC` (centres unmarked) [C-23], the IC50 in series [1] is less than 1 µM; in series [2] it was less than 0.6 µM; in series [3], less than 1 µM.

Consider `COc1cc(C2COCCCN2c2cc(C)nc(N)n2)c(Cl)cc1OC(C)C` (centres unmarked) [C-24], for which the IC50 in series [1] is 1 to 10 µM; in series [2], less than 0.6 µM; in series [3] it was less than 1 µM.

Take `Cc1cc(N2CCCOCC2c2cc(F)c(O)cc2Cl)nc(N)n1` (centres unmarked) [C-30]: the IC50 lay in the range of 1 to 10 µM in series [1], 0.6 to 2 µM in series [2] and 1 to 10 µM in series [3].

Take `Cc1cc(N2CCCOCC2c2cc(C(F)(F)F)c(N)cc2Cl)nc(N)n1` (centres unmarked) [C-31]: the IC50 in series [1] was 1 to 10 µM; in series [2] it was less than 0.6 µM; in series [3], less than 1 µM.

`Cc1cc(N2CCCOCC2c2cc3c(cc2Cl)N(C)CC3)nc(N)n1` (centres unmarked) [C-32]: the IC50 in series [1] was less than 1 µM; in series [2] it was less than 0.6 µM; in series [3], less than 1 µM.

Turning to `Cc1cc(N2CCCOCC2c2cc(Cl)c(Cl)cc2Cl)nc(N)n1` (centres unmarked) [C-34], the IC50 in series [1] was 1 to 10 µM; in series [2], not below 5 µM; in series [3], 1 to 10 µM.

In the case of `Cc1cc(N2CCCOCC2c2cc3c(cc2Cl)NC(=O)CO3)nc(N)n1` (centres unmarked) [C-35], the IC50 in series [1] was less than 1 µM; in series [2], less than 0.6 µM; in series [3], less than 1 µM.

For `COc1cc(Cl)c([C@H]2COCCCN2c2cc(C)nc(N)n2)cc1O` [C-36], the IC50 in series [1] is less than 1 µM; in series [2], less than 0.6 µM; in series [3], less than 1 µM.

On to `Cc1cc(N2CCCOCC2c2cc(C)c(F)cc2Cl)nc(N)n1` (centres unmarked) [C-38], for which the results for the 50% inhibitory concentration (IC50) in series [1], in series [2] and in series [3] were 1 to 10 µM, 2 to 5 µM and 1 to 10 µM, respectively.

As for `COc1cc(Cl)c(C2COCCCN2c2cc(C)nc(N)n2)cc1OC(C)C` (centres unmarked) [C-39], the half-maximal inhibitory concentration (IC50) in series [1] was 1 to 10 µM; in series [2], 0.6 to 2 µM; in series [3], less than 1 µM.

Take `CCOc1cc(Cl)c(C2COCCCN2c2cc(C)nc(N)n2)cc1OCC` (centres unmarked) [C-40]: the IC50 was 1 to 10 µM in series [1], less than 0.6 µM in series [2] and less than 1 µM in series [3].

As for `CCOc1cc(Cl)c(C2COCCCN2c2cc(C)nc(N)n2)cc1Cl` (centres unmarked) [C-41], the IC50 in series [1] is 10 to 25 µM; in series [2] it was less than 0.6 µM; in series [3], less than 1 µM.

For `Cc1cc(N2CCCOCC2c2ccc(OC[C@@H](O)CO)cc2Cl)nc(N)n1` (stereo partly drawn) [C-42, (S)-3-{4-[4-(2-Amino-6-methyl-pyrimidin-4-yl)-[1,4]oxazepan-3-yl]-3-chloro-phenoxy}-propane-1,2-diol], the IC50 in series [1] was less than 1 µM; in series [2], 0.6 to 2 µM; in series [3], less than 1 µM.

As for `Cc1cc(N2CCCOC[C@@H]2c2ccc(N3CCC(C)(O)CC3)cc2Cl)nc(N)n1` [C-151], the figures for the IC50 in series [1], in series [2] and in series [3] were less than 1 µM, less than 0.6 µM and less than 1 µM, respectively.

`Cc1cc(N2CCCOC[C@@H]2c2ccc(NC3COC3)cc2Cl)nc(N)n1` [C-152]: the IC50 in series [1] was less than 1 µM; in series [2], less than 0.6 µM; in series [3] it was less than 1 µM.

The values are drawn from US11440907B1 (Merck Patent GmbH, priority 2018, dated 2022).
